Experimental data as given in patent publication US7812143B2, “Biomarkers for cancer treatment” (Memorial Sloan-Kettering Cancer Center, priority 2006, dated 2010).

Experiments:
[1] = test system: V600E BRAF tumor cell lines; assay: Treatment of B-RAF mutant tumor cell lines and xenograft models with MEK inhibitors (cyclin D, RB, cell cycle, proliferation); type: cell-based; settings: tumor cell lines and xenograft models with activating B-RAF mutation (V600E BRAF)
Description: Eleven cells lines, including five BRAF mutants, are characterized by their tissue of lineage and mechanism of MAPK activation, were used for the experiments described herein, and are listed in Table 2.

[2] = test system: HER2/EGFR (WT BRAF) tumors; assay: Response of HER2/EGFR (WT BRAF) tumors to MEK inhibition, in vitro assays and xenograft models; type: cell-based; settings: for effectiveness at expected target, phosphorylated MAPK: WT BRAF group compared with V600E BRAF tumors; for sensitivity of tumors with high MAPK activity under the control of activated receptors: in vitro assays and xenograft models
Description: Eleven cells lines, including five BRAF mutants, are characterized by their tissue of lineage and mechanism of MAPK activation, were used for the experiments described herein, and are listed in Table 2. All the cell lines have high levels of MAPK activity.

[3] = test system: V600E B-RAF xenograft models of melanoma and colon carcinoma; assay: Tumor growth in V600E B-RAF xenograft models; settings: for tumor growth: compared to vehicle-treated mice, several V600E B-RAF xenograft models of melanoma and colon carcinoma; for cyclin D and Ki-67 in tumor samples: western blot and immunohistochemistry of xenograft tumor samples
[4] = test system: SkMel 28 cells; assay: Affymetrix U133A 2.0 gene expression time course after MEK inhibitor; type: cell-based; settings: 50 nM
Description: SkMel 28 cells (a melanoma cell line with the V600E BRAF mutation) were treated with the MEK inhibitor, PD0325901 (50 nM), for 2, 8, or 24 hours, or no treatment at all (=time 0 hours). Total cellular RNA was analyzed using an Affymetrix U133A 2.0 platform. Pairwise comparisons of gene expression at each individual time point to reference sample (time 0 hours) were performed, and genes were selected using a threshold of two-fold or greater change in either direction. […] Thus, genes which changed greater than or equal to two-fold in either direction in response to PD0325901 compared to control were identified at three time points following MEK inhibition. All genes were assigned to a functional class based on biological process, according to Gene Ontology (GO) classification (FIG. 2). The number of genes changing in each functional classification was assigned a p-value based on the significance of the number of genes changing given the total number of genes changed at that time point, compared to the total number of genes in the GO functional class, and the total number of genes on the chip. An enrichment score was assigned to each functional class, and was defined as the −log 10(p-value).

[5] = test system: panel of V600E BRAF cell lines; assay: Microarray (SAM) of gene expression, MEK-inhibited versus DMSO control; type: cell-based; settings: 50 nM, 8 hours, false discovery rate 9%
Description: Mean expression of genes was determined for a panel of V600E BRAF cell lines in each of two conditions, MEK-inhibited (PD0325901 50 nM) or DMSO control, both at 8 hours. The panel of V600E BRAF cell lines included 5 melanoma cell lines (SkMel 1, SkMel 5, SkMel 19, SkMel 28, and MALME 3M) and two colorectal carcinoma cell lines (Colo205 and HT29).
Significance analysis of microarray (SAM) methods were used to determine the significance of difference between the two groups of genes (using a false discovery rate of 9%). […] Expression of the genes was also presented as a heatmap representation (FIG. 3B).

[6] = test system: SkMel 5 cells; assay: Quantitative RT-PCR of relative mRNA levels after MEK inhibitor; type: cell-based; settings: 50 nM; 2, 4, 8 and 24 hrs versus time 0; SkMel 5 (V600E BRAF)
Description: Quantitative RT-PCR was used to determine relative levels of mRNA in cells as a function of time following exposure to the MEK inhibitor (PD0325901 50 nM). SkMel 5 cells were treated with MEK inhibitor (PD0325901 50 nM) for the times indicated (2 hrs, 4 hrs, 8 hrs, and 24 hrs). Following total RNA extraction and an in vitro reverse transcription step, synthesized cDNA was used in a PCR reaction containing pre-designed probe-primer sets purchased from Applied Biosystems and run on an ABI 7500 RT-PCR machine, using software supplied by Applied Biosystems. Relative levels of mRNA compared to the reference sample (time 0) were determined using the ΔΔCT calculation, using HPRT as a housekeeping gene for normalization. In brief, each gene for each sample is assigned a value based on the number of PCR amplification cycles required for the amplified gene product to cross a detection threshold (i.e., a gene detectable at 25 amplification cycles is present in greater starting quantity than a gene product detectable at 30 cycles). The cycle value for each sample for the gene of interest is subtracted from the cycle value for a reference sample (untreated, or time 0), and this value is the delta CT for the gene of interest. […] This is the delta CT for the housekeeping gene. The delta CT (housekeeping gene) is subtracted from the delta CT (gene of interest), and this is the delta delta CT. […]

[7] = test system: SkMel 5, SkMel 19, and Colo205; assay: Western blot of relative protein expression after MEK inhibitor; type: cell-based; settings: 50 nM, as a function of time; three V600E BRAF cell lines
Description: Following protein isolation using NP40 1% lysis buffer, Western blot analysis was used to determine relative protein expression in cells as a function of time following exposure to MEK inhibitor (PD0325901 50 nM). […] For the Western Blot analysis, DUSP6 antibody (SantaCruz (#8598)), and SPRY2 antibody (Upstate Cell Signaling Solutions).

SMILES: O=C(NOCC1CC1)c1ccc(F)c(F)c1Nc1ccc(I)cc1Cl [CI-1040]
- cell cycle [1]: G1 arrest
- cyclin D levels [1]: decline in cyclin D levels
- phosphorylation of RB [1]: hypophosphorylation of RB
- proliferation [1]: inhibition of proliferation
- effectiveness at expected target, phosphorylated MAPK [2]: not measurably different
- sensitivity of tumors with high MAPK activity under the control of activated receptors [2]: resistant
- tumor growth [3]: Tumor growth delay was achieved
- cyclin D and Ki-67 in tumor samples [3]: decline in both cyclin D and Ki-67

SMILES: O=C(NOC[C@H](O)CO)c1ccc(F)c(F)c1Nc1ccc(I)cc1F [PD0325901]
- cell cycle [1]: G1 arrest
- cyclin D levels [1]: decline in cyclin D levels
- phosphorylation of RB [1]: hypophosphorylation of RB
- proliferation [1]: inhibition of proliferation
- effectiveness at expected target, phosphorylated MAPK [2]: not measurably different
- sensitivity of tumors with high MAPK activity under the control of activated receptors [2]: resistant
- number of genes changing two-fold or greater in either direction ([4]; 2 hours versus time 0): 91 genes
- number of genes changing two-fold or greater in either direction ([4]; 8 hours versus time 0): 327 genes
- number of genes changing two-fold or greater in either direction ([4]; 24 hours versus time 0): 1191 genes
- genes downregulated [5]: 31 genes
- genes upregulated [5]: 4 genes
- genes which change significantly in either direction ([5]; 45 probe sets): 35 genes
- relative mRNA levels of DUSP6, SPRY2, ETV1, ETV5, and CCND1 [6]: Decrease in mRNA levels
- relative protein expression of DUSP6 and SPRY2 [7]: decrease in protein expression
- tumor growth [3]: Tumor growth delay was achieved
- cyclin D and Ki-67 in tumor samples [3]: decline in both cyclin D and Ki-67
